One assay relates to human RECs. The assay is described as follows: Matrigel microvessel (tube) formation by human RECs. It counts as cell-based. Conditions: control and VEGF-treated (50 ng/mL) cultures, 18 hours. The method, then: Since VEGF-mediated angiogenesis and vascular leakage are critical processes in the pathology of diabetic retinopathy, we evaluated the effects of Compound II on the VEGF-induced formation of microvessels by human RECs. The basement membrane-like substrate, Matrigel (Becton-Dickinson, Franklin Lakes, N.J.), was used to induce vessel-like tube formation from human RECs as in previous studies with other cell types (Lee et al., Cancer Lett 208: 89 (2004)). Briefly, 300 μL of Matrigel was pipetted into 24 well plates and allowed to gel at 37° C. for 30 minutes. Human RECs were briefly trypsinized and plated onto the layer of Matrigel at an approximate density of 25,000 cells/cm^2. VEGF (50 ng/mL in PBS) with either DMSO or an SK inhibitor was added to the media immediately. After 18 hours at 37° C., images were digitally captured with a Retiga Ex camera with bright-field microscopy using a Nikon Eclipse TE300 microscope.

Assay [1] deals with endogenous SK. The assay is described as follows: VEGF-stimulated SK activity in bovine RECs. It counts as cell-based. Conditions: VEGF 50 ng/mL, 12 hours, serum-starved bovine RECs. How it is done: FIG. 5. Effects of Compound II on VEGF-stimulated SK activity in RECs. Bovine RECs were serum-starved for 24 hours and then left untreated or incubated with VEGF (50 ng/mL) in the presence of DMS (D) or the indicated concentration (in μM) of Compound II for 12 hours. [^3H]Sphingosine was then added to the cells and its conversion to [^3H]S1P was determined. Values represent the mean±SD of duplicate samples in a typical experiment.
(§1) Cellular S1P formation assay. Cells were grown to confluency in 24-well tissue culture plates and serum-starved for 24 hours as described above. Cells were then treated with 1% DMSO (as the drug vehicle), 20 μM dimethylsphingosine, or the indicated concentration of an SK inhibitor for 4 hours. The cells were then incubated with [^3H]sphingosine for 15 minutes, and the formation of [^3H]S1P was measured as previously described (French et al., Cancer Res 63: 5962 (2003)). In some assays, the cells were serum-starved for 24 hours and then treated with VEGF (50 ng/mL) alone or in the presence of an SK inhibitor for an additional 12 hours. [^3 H]Sphingosine was then added for 15 minutes, and its conversion to [^3H]S1P was measured as indicated above.
The effects of VEGF on SK activity in bovine RECs using the same cell-based assay as above, except that serum was removed from the cultures 24 hours before the addition of the SK inhibitor and VEGF were tested. […]

Assay [2] has as its system endogenous SK. The assay is described as follows: Cellular SK activity in bovine retinal endothelial cells. It is filed as cell-based. As to conditions: 25 μg/mL (approximately 80 μM), 4 hours. The method, then:
FIG. 3. Inhibition of cellular SK activity in RECs. Bovine retinal endothelial cells were incubated with 20 μM dimethylsphingosine (DMS) or 25 μg/mL Compound I, Compound II or Compound V (approximately 80 μM for each compound) for 4 hours before the addition of 0.4 μCi of [^3H]sphingosine. After 15 minutes, cells were lysed and extracted with chloroform: methanol. The total amounts of [^3H]sphingosine in the organic phase and [^3H]S1P in the aqueous phase were then determined. Values represent the mean±SD of duplicate samples in a typical experiment.
as §1
A cell-based assay in which the phosphorylation of exogenously added [^3H]sphingosine to [^3H]S1P by endogenous SK can be quantified (French et al., Cancer Res 63: 5962 (2003)) was used to evaluate the effects of test compounds on the activity of SK in intact cells. In this assay, cells are incubated with [^3 H]sphingosine for an appropriate period of time, and then [^3H]sphingosine and [^3H]S1P (formed by endogenous SK activity) are separated by extraction and levels of both species are determined by scintillation counting. We have used a number of cell lines in this assay to confirm that the SK inhibitors are active in multiple intact cell systems. For example, human umbilical vein endothelial cells (HUVECs) are commonly used as a model of human vasculature. […] Similarly, the enzymatic activity of SK in bovine RECs, and its sensitivity to SK inhibitors were assessed. […] Each of inhibitors of SK (Compound I, Compound II and Compound V) was also active against the endogenous SK activity in the bovine RECs.

Assay [3] relates to endogenous SK. The assay is described as follows: Cellular S1P formation assay in human chondrocytes (HC). It counts as cell-based. As to conditions: HCs; read-out: drug concentration that decreases S1P formation by 50%. The method, then:
as §1
A cell-based assay in which the phosphorylation of exogenously added [^3H]sphingosine to [^3H]S1P by endogenous SK can be quantified (French et al., Cancer Res 63: 5962 (2003)) was used to evaluate the effects of test compounds on the activity of SK in intact cells. In this assay, cells are incubated with [^3 H]sphingosine for an appropriate period of time, and then [^3H]sphingosine and [^3H]S1P (formed by endogenous SK activity) are separated by extraction and levels of both species are determined by scintillation counting. […] Similarly, the enzymatic activity of SK in bovine RECs, and its sensitivity to SK inhibitors were assessed. […]

The test system of assay [4] is VEGF-induced vascular permeability. The assay is described as follows: VEGF-induced vascular leakage (Miles assay) in nude mice. It counts as in vivo, mouse. Conditions: 100 mg/kg intraperitoneal, FIG. 7A.
Assay [5] concerns endogenous SK. The assay is described as follows: Cellular S1P formation assay in HUVECs. Conditions: read-out: drug concentration that decreases S1P formation by 50%. It counts as cell-based, human. The method, then:
FIG. 2. Inhibition of S1P production in HUVECs by SK inhibitors. […] After 15 minutes, cells were lysed and extracted with chloroform: methanol, and the amounts of [^3H]sphingosine in the organic phase and [^3H]S1P in the aqueous phase were then determined. Values represent the mean±sd SK activity.
Cellular S1P formation assay. Cells were grown to confluency in 24-well tissue culture plates and serum-starved for 24 hours as described above. Cells were then treated with 1% DMSO (as the drug vehicle), 20 μM dimethylsphingosine, or the indicated concentration of an SK inhibitor for 4 hours. The cells were then incubated with [^3H]sphingosine for 15 minutes, and the formation of [^3H]S1P was measured as previously described (French et al., Cancer Res 63: 5962 (2003)). […] [^3 H]Sphingosine was then added for 15 minutes, and its conversion to [^3H]S1P was measured as indicated above.
A cell-based assay in which the phosphorylation of exogenously added [^3H]sphingosine to [^3H]S1P by endogenous SK can be quantified (French et al., Cancer Res 63: 5962 (2003)) was used to evaluate the effects of test compounds on the activity of SK in intact cells. […] Similarly, the enzymatic activity of SK in bovine RECs, and its sensitivity to SK inhibitors were assessed. […]

pIC50: −log10 of the molar value. Some results are limits rather than exact numbers.

On to `Oc1ccc(Nc2nc(-c3ccc(Cl)cc3)cs2)cc1` [Compound II], for which, in the assay on human RECs, the “formation of networks and tubes” value is listed as “marked reduction”. The “concentration completely inhibiting the SK activity response to VEGF” value with endogenous SK [1] was at least 1.3 µM. Further, the “endogenous SK activity in bovine RECs” value in the assay with endogenous SK [2] is reported as “active”. The pIC50 in the assay with endogenous SK [3] is 6.44; in the assay on endogenous SK [5], 6.70. For the same molecule, the “inhibition of the in vivo vascular leakage response to VEGF” value in assay [4] is “more than 80%”.

For the origin of these results see US20060270631A1, “Methods for the treatment and prevention of angiogenic diseases” (priority 2005, published 2006).
